Laboratory results from patent publication US20180340933A1, “Soybean Allergy Related Epitopes” (Fraunhofer-Gesellschaft zur Foerderung der angewandten …, priority 2015, published 2018).
Ends that are not written are not given here.

Experiments:
Assay type in all cases: binding, human
[1] = tested on: IgE of sera from soybean-sensitive patients; assay: Peptide microarray, immune status of soybean-sensitive patients: IgE detection; conditions: sera from 50 patients, diluted 1:50; positive = signal to noise ratio above 5
Description: (§1) Epitope candidates were supplied externally (Neundorf, University of Cologne, Germany). The peptide is synthesised with the following structure: Ac-N-epitope sequence-C-Ebes-Lys(γ-N3)-amide (Ebes=amino-3,6-dioxaoctyl-succinamic acid). The peptide sequences were based on either the naïve soybean protein sequence (Pr) or the mimotope from phage display experiment (Ph). The peptide length varied between eight and nineteen amino acids. Glass slides were coated with Dibenzocyclooctyl (DBCO). The peptides were immobilized using different concentrations (81 ng/μl, 27 ng/μl or 9 ng/μl) on glymo-covered slides using click chemistry.
(§2) Each slide was blocked for 30 min with PBS containing 0.1% (v/v) Tween-20 and 1% (w/v) BSA, pH 7.4. For the incubation with sera cover slides (HybriWell™. 60 mm×21 mm×0.15) were used. Sera from 50 patients with differently intense prick reaction to soy milk were tested. The slides were incubated with 100 μl sera from the soybean-sensitive patients diluted 1:50 in blocking buffer overnight at 4° C. After two washes in washing buffer (PBS containing 0.1% (v/v) Tween-20, pH 7.4) the slides were shaken at 200 rpm for 60 min in a mouse-anti human IgE antibody (Abcam, Cambridge, UK, ab99834) diluted to 100 ng/ml or goat-anti human IgG antibody Cy5 (Abcam, Cambridge, UK, ab97172) diluted to 100 ng/ml in blocking buffer. After two further washes, bound IgG and IgE were detected by incubating the array for 60 min at room temperature with the secondary Cy5-labeled goat anti-mouse antibody (life technologies, Thermo Fisher Scientific, Waltham, Mass., USA, A10524) diluted to 400 ng/ml in blocking buffer. Fluorescence signals on the array were detected in a microarray reader (Geneprix 4200A) at 635 nm and the data were evaluated using GenePix® Pro 6 software to determine the signal intensity of each peptide spot. The software calculated the signal to noise ratio (SNR) for every spot. An overall threshold of 5 signal to noise ratio units was set, and signals above this threshold were assumed to indicate positive recognition by the patient sera.

[2] = tested on: IgG of sera from soybean-sensitive patients; assay: Peptide microarray, immune status of soybean-sensitive patients: IgG detection; conditions: sera from 50 patients, diluted 1:50; positive = signal to noise ratio above 5
Description: as §1, §2

[3] = tested on: antibodies (IgE and IgG) in sera of soybean-protein sensitive patients; assay: Peptide microarray, recognition of peptides by patient sera (IgE and IgG, total); conditions: sera from 50 patients
Description: as §1, §2

[4] = tested on: antibodies of serum from patients with soy allergy; assay: Phage display affinity selection and panning (ENTE1 library), sequencing and statistical motif analysis; conditions: for all three epitopes (SEQ ID NO.: 17, 20, 15) recognized by the same patient: 23 patients; for epitope recognized by patients / two epitopes (SEQ ID NO.: 15, SEQ ID NO.: 17) recognized by the same patients: number of patients out of 23; for sequence count (lcount): 2013_S1_2. Panning
Description: Strong immunodominant allergic proteins, such as P34 thiol protease (Gly m Bd 30K), are known to induce allergic reactions, whereas other soybean proteins, although no potent inducers of a primary allergic response, can nevertheless trigger effector responses due to their binding by IgE. […] For example, only 65% of soybean sensitive individuals carry IgE recognizing P34 thiol protease (Gly m Bd 30K), which is considered one of the strongest allergenic soybean proteins (Yang et al., 2011). […] To identify many specific epitopes, i.e. amino acid sequences of soybean proteins, recognized by antibodies of sensitive patients, with high resolution down to the individual amino acids involved, the inventors applied a novel approach using a specific random phage library (EP 14 166 662.8). This phage library is generated using triplet codons with specific limitations, such that most amino acids are regularly represented throughout the entire library. In consequence, the library covers an unusually broad range of sequence variability and allows particular reliable statistical analysis. The library was contacted with serum samples derived from a biobank of 50 different soybean protein sensitive patients. After phage selection, the amino acid sequences that were bound by the patients' antibodies (anti-[allergen antibody] amino acid sequence) were identified by next generation sequencing and the results statistically analyzed. To confirm the allergy relevance of the identified amino acid sequences, their reactivity with patient IgE was determined by peptide arrays. Thereby, the inventors identified more than 300 potentially allergenic epitopes from different soybean proteins. The identified epitopes could be assigned to a total of 23 soybean proteins (Table 1) including P34 thiol protease (Gly m Bd 30K), β-conglycinin (Gly m Bd60 K) and Gly m Bd 28K, which are considered major soybean allergenic proteins (Yang et al., 2011).
24 μg of serum protein from patients with soy allergy were diluted in 2.5 ml PBS and coated in protein binding Immuno™ Tubes with Maxisorp™ for 1 h at 4° C. at 18 rpm (negative control: PBS). The coated tubes were washed with 2.5 ml blocking buffer (5% NFDM/1×PBS) and incubated with 4 ml blocking buffer at 4° C. for at least 15 min (18 rpm). The tubes were washed three times with 4 ml wash buffer I (1×PBS). 1 ml blocking buffer containing 30 μg of non-allergic serum protein and the phage library ENTE1 was added to each tube. The tubes were incubated for 2 h at 4° C. (18 rpm). After incubation, the tubes were washed 5 times with 1 ml 0.1% Tween/1×PBS and subsequently with 0.5% Tween/1×PBS. Then the bound phages were eluted using 1 ml of elution buffer (0.1 M Glycin.HCl pH 2.2). The tubes were incubated 5 min and vortexed several times. The eluate was immediately neutralized with 200 μl neutralization buffer (1 M Tris.HCl pH 8.2). In the first selection round 4×10^11 cfu of the ENTE1-library were used per tube. In the second selection round 1000×the recovered phages were inserted.
TG1 (λ) cells were grown in 250 ml baffled culture flasks in 10 ml dYT at 37° C. until they reached an OD600 about 0.5-1.0. The cells were incubated with eluted phage for 20 min at 37° C. with 100 rpm agitation. After incubation, the solution was immediately poured on dYT-agar plates (25×25 cm) containing 200 μg/ml ampicillin and incubated overnight at 30° C.
After overnight incubation the colonies were resuspended in 25 ml dYT containing 1×10^10 cfu/ml M13K07. The cells were diluted in 25 ml dYT containing 500 μg/ml ampicillin and 1×10^10 cfu/ml M13K07 using a 250 ml baffled culture flasks to obtain a cell density of OD600 0.5. The cells were incubated for 1 h at 37° C. with 180 rpm agitation. Afterwards the culture was growing about 13 h at 30° C. with 180 rpm agitation. […]

Substance | Number of IgE-positive sera [1] | Number of IgG-positive sera [2] | total (IgE- and IgG-positive sera) [3] | other results
DEGEQPRPFPFPRPR (peptide P7) [54] | 2 | 2 | 4 | 
EFLKYQQEQG (peptide P12) [127] | 12 | 12 | 24 | 
EIPRPR (glycine max) [SEQ ID NO.: 20] |  |  |  | all three epitopes (SEQ ID NO.: 17, 20, 15) recognized by the same patient [4]: one; epitope recognized by patients [4]: 3/23
EVSFASQVLIY (peptide P3) [94] | 6 | 3 | 9 | 
FDQKESQHFS (peptide P17) [345] | 0 | 1 | 2 | 
GEIMCWREVVTQHQQHA (glycine max) [SEQ ID NO.: 707] |  |  |  | sequence count (lcount) [4]: 122
GFNLCNRDRPAP (Ac-GFNLCNRDRPAP; not fully specified (C-terminus); also: Ebes linker, place not given here, Lys(azide), place not given here) [Peptide P1, 100] | 4 | 4 | 8 | 
GIEPCSKYSQHQQHVQN (glycine max) [SEQ ID NO.: 706] |  |  |  | sequence count (lcount) [4]: 250
GVYNSQVDDEEEQNQRD (peptide P13) [159] | 7 | 1 | 8 | 
GYNPCRQEEDEELHHKC (peptide P19) [104] | 9 | 6 | 15 | 
HAANVVGNKESQREAR [Peptide P18] | 8 | 1 | 9 | 
HIQEEECEGDL (peptide P8) [50] | 2 | 2 | 4 | 
HITFSREEGSI (peptide P5) [35] | 12 | 2 | 14 | 
HVVEQEFLD (peptide P14) [126] | 23 | 5 | 28 | 
ISQQDRHRI (peptide P16) [154] | 28 | 13 | 42 | 
KVLFSREEGQQQ (peptide P6) [35] | 21 | 9 | 31 | 
NSERD (glycine max) [SEQ ID NO.: 15] |  |  |  | all three epitopes (SEQ ID NO.: 17, 20, 15) recognized by the same patient [4]: one; epitope recognized by patients [4]: 7/23; two epitopes (SEQ ID NO.: 15, SEQ ID NO.: 17) recognized by the same patients [4]: 5/23
QDQEEDEEDE (peptide P20) [104] | 5 | 2 | 7 | 
QHQQ |  |  |  | motive count, first panning ([4]; Serum 1, 1. Panning round): 407 counts; motive count, second panning ([4]; Serum 1, 2. Panning round): 825 counts
RNQACHA (glycine max) [SEQ ID NO.: 17] |  |  |  | all three epitopes (SEQ ID NO.: 17, 20, 15) recognized by the same patient [4]: one; epitope recognized by patients [4]: 15/23; two epitopes (SEQ ID NO.: 15, SEQ ID NO.: 17) recognized by the same patients [4]: 5/23
RRFYLAGNQEQEFL (peptide P15) [126] | 3 | 2 | 6 | 
SDKYQEEFQPR (peptide P10) [127] | 10 | 1 | 12 | 
SHHDQPRQHA (peptide P4) [28] | 12 | 6 | 18 | 
SQSHGFHGLCNRDHNCA (peptide P2) [100] | 7 | 1 | 8 | 
TEKYQQNSSG (peptide P11) [127] | 2 | 3 | 5 | 
VEEEEECEEGQI (peptide P9) [50] | 32 | 17 | 50 | 
